Test results reported in patent US9428514B2, “Bromodomain inhibitors” (AbbVie Inc., priority 2013, dated 2016).
pEC50: −log10 of the molar value.

System: breast cancer cell line MX-1
Test: MX-1 cell line proliferation assay (3-day, Cell Titer Glo)
Format: cell-based
Settings: Homo sapiens, MX1, MX-1 cells, 72 hours, read-out: Cellular proliferation: EC50
Experimental: The impact of compounds of the Examples on cancer cell proliferation was determined using the breast cancer cell line MX-1 (ATCC) in a 3-day proliferation assay. MX-1 cells were maintained in RPMI supplemented with 10% FBS at 37° C. and an atmosphere of 5% CO2. For compound testing, MX-1 cells were plated in 96-well black bottom plates at a density of 5000 cells/well in 90 μL of culture media and incubated at 37° overnight to allow cell adhesion and spreading. Compound dilution series were prepared in DMSO via a 3-fold serial dilution from 3 mM to […]. The DMSO dilution series were then diluted 1:100 in phosphate buffered saline, and 10 μL of the resulted solution were added to the appropriate wells of the MX-1 cell plate. The final compound concentrations in the wells were 3, 1, 0.3, 0.1, 0.03, 0.01, 0.003, 0.001, 0.0003, 0.0001, and 0.00003 μM.
Luminescence readings from the Cell Titer Glo assay were normalized to the DMSO treated cells and analyzed using the GraphPad Prism software with sigmoidal curve fitting to obtain EC50s. The minimum significant ratio (MSR) was determined to evaluate assay reproducibility (Eastwood et al., (2006) J Biomol Screen, 11: 253-261). The overall MSR was determined to be 2.1 and a moving MSR (last six run MSR overtime) has been <2. The EC50 values are reported in Table 1 for the indicated compounds.

SMILES | pEC50
CCOc1cc(=O)n(C)cc1-c1cc(N(CCc2ccccc2)S(=O)(=O)CC)ccc1Oc1ccc(F)cc1F [Example 75, N-[4-(2,4-difluorophenoxy)-3-(4-ethoxy-1-methyl-6-oxo-1,6-dihydropyridin-3-yl)phenyl]-N-(2-phenylethyl)ethanesulfonamide] | 6.21
CCOc1cc(=O)n(C)cc1-c1cc(N(CC2CC2)S(=O)(=O)Cc2ccccc2)ccc1Oc1ccc(F)cc1F [Example 76, N-(cyclopropylmethyl)-N-[4-(2,4-difluorophenoxy)-3-(4-ethoxy-1-methyl-6-oxo-1,6-dihydropyridin-3-yl)phenyl]-1-phenylmethanesulfonamide] | < 6.00
CCOc1cc(=O)n(C)cc1-c1cc(N(Cc2ccccc2Cl)S(=O)(=O)Cc2ccccc2)ccc1Oc1ccc(F)cc1F [Example 78, N-(2-chlorobenzyl)-N-[4-(2,4-difluorophenoxy)-3-(4-ethoxy-1-methyl-6-oxo-1,6-dihydropyridin-3-yl)phenyl]-1-phenylmethanesulfonamide] | < 6.00
CCOc1cc(=O)n(C)cc1-c1cc(N(CCc2ccccc2)S(=O)(=O)Cc2ccccc2)ccc1Oc1ccc(F)cc1F [Example 79, N-[4-(2,4-difluorophenoxy)-3-(4-ethoxy-1-methyl-6-oxo-1,6-dihydropyridin-3-yl)phenyl]-1-phenyl-N-(2-phenylethyl)methanesulfonamide] | < 6.00
CCOc1cc(=O)n(C)cc1-c1cc(N(CCc2ccccc2Cl)S(=O)(=O)CC)ccc1Oc1ccc(F)cc1F [Example 80, N-[2-(2-chlorophenyl)ethyl]-N-[4-(2,4-difluorophenoxy)-3-(4-ethoxy-1-methyl-6-oxo-1,6-dihydropyridin-3-yl)phenyl]ethanesulfonamide] | < 6.00
CCOc1cc(=O)n(C)cc1-c1cc(NC(=O)Cc2cc(Cl)ccc2F)ccc1Oc1ccc(F)cc1F [Example 82, 2-(5-chloro-2-fluorophenyl)-N-[4-(2,4-difluorophenoxy)-3-(4-ethoxy-1-methyl-6-oxo-1,6-dihydropyridin-3-yl)phenyl]acetamide] | < 6.00
CCOc1cc(=O)n(C)cc1-c1cc(NC(=O)Cc2csc(C)n2)ccc1Oc1ccc(F)cc1F [Example 83, N-[4-(2,4-difluorophenoxy)-3-(4-ethoxy-1-methyl-6-oxo-1,6-dihydropyridin-3-yl)phenyl]-2-(2-methyl-1,3-thiazol-4-yl)acetamide] | 6.52
CCOc1cc(=O)n(C)cc1-c1cc(N(Cc2nccs2)S(=O)(=O)Cc2ccccc2)ccc1Oc1ccc(F)cc1F [Example 90, N-[4-(2,4-difluorophenoxy)-3-(4-ethoxy-1-methyl-6-oxo-1,6-dihydropyridin-3-yl)phenyl]-1-phenyl-N-(1,3-thiazol-2-ylmethyl)methanesulfonamide] | < 6.00
CCOc1cc(=O)n(C)cc1-c1cc(N(Cc2cccnc2)S(=O)(=O)Cc2ccccc2)ccc1Oc1ccc(F)cc1F [Example 92, N-[4-(2,4-difluorophenoxy)-3-(4-ethoxy-1-methyl-6-oxo-1,6-dihydropyridin-3-yl)phenyl]-1-phenyl-N-(pyridin-3-ylmethyl)methanesulfonamide] | < 6.00
CCOc1cc(=O)n(C)cc1-c1cc(N(Cc2cncnc2)S(=O)(=O)CC)ccc1Oc1ccc(F)cc1F [Example 93, N-[4-(2,4-difluorophenoxy)-3-(4-ethoxy-1-methyl-6-oxo-1,6-dihydropyridin-3-yl)phenyl]-N-(pyrimidin-5-ylmethyl)ethanesulfonamide] | < 6.00
CCOc1cc(=O)n(C)cc1-c1cc(N(Cc2cnccn2)S(=O)(=O)Cc2ccccc2)ccc1Oc1ccc(F)cc1F [Example 96, N-[4-(2,4-difluorophenoxy)-3-(4-ethoxy-1-methyl-6-oxo-1,6-dihydropyridin-3-yl)phenyl]-1-phenyl-N-(pyrazin-2-ylmethyl)methanesulfonamide] | < 6.00
CCOc1cc(=O)n(C)cc1-c1cc(N(Cc2cnn(C)c2)S(=O)(=O)CC)ccc1Oc1ccc(F)cc1F [Example 97, N-[4-(2,4-difluorophenoxy)-3-(4-ethoxy-1-methyl-6-oxo-1,6-dihydropyridin-3-yl)phenyl]-N-[(1-methyl-1H-pyrazol-4-yl)methyl]ethanesulfonamide] | 6.26
CCOc1cc(=O)n(C)cc1-c1cc(N(Cc2cnn(C)c2)S(=O)(=O)Cc2ccccc2)ccc1Oc1ccc(F)cc1F [Example 98, N-[4-(2,4-difluorophenoxy)-3-(4-ethoxy-1-methyl-6-oxo-1,6-dihydropyridin-3-yl)phenyl]-N-[(1-methyl-1H-pyrazol-4-yl)methyl]-1-phenylmethanesulfonamide] | < 6.00
CCOc1cc(=O)n(C)cc1-c1cc(N(Cc2cn(C)cn2)S(=O)(=O)CC)ccc1Oc1ccc(F)cc1F [Example 100, N-[4-(2,4-difluorophenoxy)-3-(4-ethoxy-1-methyl-6-oxo-1,6-dihydropyridin-3-yl)phenyl]-N-[(1-methyl-1H-imidazol-4-yl)methyl]ethanesulfonamide] | < 6.00

Further lines, results first:

pEC50 | SMILES
< 6.00 | CCOc1cc(=O)n(C)cc1-c1cc(N(Cc2ccccc2)S(=O)(=O)Cc2ccccc2)ccc1Oc1ccc(F)cc1F [Example 77, N-benzyl-N-[4-(2,4-difluorophenoxy)-3-(4-ethoxy-1-methyl-6-oxo-1,6-dihydropyridin-3-yl)phenyl]-1-phenylmethanesulfonamide]
< 6.00 | CCOc1cc(=O)n(C)cc1-c1cc(NC(=O)Cn2ccc(-c3ccccc3)n2)ccc1Oc1ccc(F)cc1F [Example 81, N-[4-(2,4-difluorophenoxy)-3-(4-ethoxy-1-methyl-6-oxo-1,6-dihydropyridin-3-yl)phenyl]-2-(3-phenyl-1H-pyrazol-1-yl)acetamide]
6.30 | CCOc1cc(=O)n(C)cc1-c1cc(N(Cc2cccnc2)S(=O)(=O)CC)ccc1Oc1ccc(F)cc1F [Example 91, N-[4-(2,4-difluorophenoxy)-3-(4-ethoxy-1-methyl-6-oxo-1,6-dihydropyridin-3-yl)phenyl]-N-(pyridin-3-ylmethyl)ethanesulfonamide]
< 6.00 | CCOc1cc(=O)n(C)cc1-c1cc(N(Cc2cnccn2)S(=O)(=O)CC)ccc1Oc1ccc(F)cc1F [Example 95, N-[4-(2,4-difluorophenoxy)-3-(4-ethoxy-1-methyl-6-oxo-1,6-dihydropyridin-3-yl)phenyl]-N-(pyrazin-2-ylmethyl)ethanesulfonamide]
6.26 | CCOc1cc(=O)n(C)cc1-c1cc(N(Cc2nccs2)S(=O)(=O)CC)ccc1Oc1ccc(F)cc1F [Example 99, N-[4-(2,4-difluorophenoxy)-3-(4-ethoxy-1-methyl-6-oxo-1,6-dihydropyridin-3-yl)phenyl]-N-(1,3-thiazol-2-ylmethyl)ethanesulfonamide]
< 6.00 | CCOc1cc(=O)n(C)cc1-c1cc(N(Cc2cn(C)cn2)S(=O)(=O)Cc2ccccc2)ccc1Oc1ccc(F)cc1F [Example 101, N-[4-(2,4-difluorophenoxy)-3-(4-ethoxy-1-methyl-6-oxo-1,6-dihydropyridin-3-yl)phenyl]-N-[(1-methyl-1H-imidazol-4-yl)methyl]-1-phenylmethanesulfonamide]
6.15 | CCOc1cc(=O)n(C)cc1-c1cc(N(C[C@H]2COCCO2)S(=O)(=O)CC)ccc1Oc1ccc(F)cc1F [Example 102, N-[4-(2,4-difluorophenoxy)-3-(4-ethoxy-1-methyl-6-oxo-1,6-dihydropyridin-3-yl)phenyl]-N-[(2S)-1,4-dioxan-2-ylmethyl]ethanesulfonamide]
6.17 | CCOc1cc(=O)n(C)cc1-c1cc(N(CC2CCOCC2)S(=O)(=O)CC)ccc1Oc1ccc(F)cc1F [Example 103, N-[4-(2,4-difluorophenoxy)-3-(4-ethoxy-1-methyl-6-oxo-1,6-dihydropyridin-3-yl)phenyl]-N-(tetrahydro-2H-pyran-4-ylmethyl)ethanesulfonamide]
